According to US9585886B2, “ASK1 inhibiting pyrrolopyrimidine derivatives” (CALCHAN LIMITED, priority 2010, dated 2017):

Tests used:
human ASK1 kinase = molecular target: T1, human ASK1 kinase (Homo sapiens, UniProt Q99683); assay: Determination of ASK1 inhibitor activity (IMAP FP assay of example 52 or AlphaLISA assay of example 53)
T1 sequence (Q99683 1-1374): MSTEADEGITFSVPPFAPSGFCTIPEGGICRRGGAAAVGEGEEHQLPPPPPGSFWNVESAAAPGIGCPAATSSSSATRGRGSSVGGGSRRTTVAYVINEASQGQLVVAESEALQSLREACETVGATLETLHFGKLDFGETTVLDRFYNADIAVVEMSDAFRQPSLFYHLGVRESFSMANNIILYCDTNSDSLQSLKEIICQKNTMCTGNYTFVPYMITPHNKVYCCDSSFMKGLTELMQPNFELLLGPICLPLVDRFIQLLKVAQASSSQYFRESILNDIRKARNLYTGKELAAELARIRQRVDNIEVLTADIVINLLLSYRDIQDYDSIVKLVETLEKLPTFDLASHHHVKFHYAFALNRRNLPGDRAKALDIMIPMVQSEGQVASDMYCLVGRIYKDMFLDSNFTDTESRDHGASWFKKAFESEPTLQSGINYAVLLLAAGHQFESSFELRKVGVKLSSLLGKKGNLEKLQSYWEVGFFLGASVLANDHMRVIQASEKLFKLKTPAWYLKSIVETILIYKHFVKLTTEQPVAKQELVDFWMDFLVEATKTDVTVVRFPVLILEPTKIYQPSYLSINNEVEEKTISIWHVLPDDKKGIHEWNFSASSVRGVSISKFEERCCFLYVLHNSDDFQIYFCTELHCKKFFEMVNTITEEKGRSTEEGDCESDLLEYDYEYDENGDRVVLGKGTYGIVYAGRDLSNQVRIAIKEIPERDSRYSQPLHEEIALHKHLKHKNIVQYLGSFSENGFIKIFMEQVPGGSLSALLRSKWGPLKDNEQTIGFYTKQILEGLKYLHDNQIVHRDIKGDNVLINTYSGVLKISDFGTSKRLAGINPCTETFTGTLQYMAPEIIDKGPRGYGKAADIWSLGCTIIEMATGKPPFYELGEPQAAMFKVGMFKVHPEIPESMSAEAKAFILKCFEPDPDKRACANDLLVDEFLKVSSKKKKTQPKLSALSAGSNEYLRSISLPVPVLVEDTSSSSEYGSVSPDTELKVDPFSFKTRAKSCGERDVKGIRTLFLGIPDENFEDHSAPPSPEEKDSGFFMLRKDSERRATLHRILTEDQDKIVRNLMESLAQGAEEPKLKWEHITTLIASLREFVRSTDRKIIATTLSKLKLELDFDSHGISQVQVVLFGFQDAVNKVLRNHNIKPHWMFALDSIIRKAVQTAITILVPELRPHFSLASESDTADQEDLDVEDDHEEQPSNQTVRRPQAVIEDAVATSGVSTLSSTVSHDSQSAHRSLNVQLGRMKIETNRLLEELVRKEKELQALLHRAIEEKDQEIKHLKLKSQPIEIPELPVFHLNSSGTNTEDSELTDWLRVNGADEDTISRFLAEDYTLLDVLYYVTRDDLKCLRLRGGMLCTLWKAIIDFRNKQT

[1] = test system: FCA-induced inflammatory mechanical hypersensitivity
[2] = test system: CCI-induced mechanical allodynia; conditions: rat CCI model

Row | SMILES | IC50 (human ASK1 kinase) [µM] | effect on inflammatory mechanical hypersensitivity caused by FCA (weightbearing) ([1]; dosed orally 24 hours after FCA injection, at 30 mg/kg) | effect on inflammatory mechanical hypersensitivity (FIG. 2, weightbearing) ([1]; rats, 3 mg/kg po and 30 mg/kg po, 24 hours after intraplantar FCA, measured 1 hour after dosing) | effect on mechanical allodynia caused by nerve injury in the CCI model [2]
1 | O=C(NC1CCN(c2nc[nH]c3nccc2-3)CC1)c1ccc(N2CCCC2)cc1 [4-(1-pyrrolidinyl)-N-[1-(1H-pyrrolo[2,3-d]pyrimidin-4-yl)-4-piperidinyl]benzamide] | 25.1 |  |  | 
2 | Cc1c[nH]c2ncnc(N3CCC(NC(=O)c4ccccc4)CC3)c12 [Example 17] |  | partially reverse the inflammatory mechanical hypersensitivity | reverses inflammatory mechanical hypersensitivity | partially reversed the mechanical allodynia
